In ChEMBL document CHEMBL3046109, “A Method for Monitoring the Sensitivity of Botrytis cinerea to Mepanipyrim” (2004):

Experiments:
Type in all cases: functional
Botrytis cinerea [1] = assay: Fungicidal activity against anilinopyrimidine-resistant Botryotinia fuckeliana CH164.94 infected in strawberry fruit assessed as inhibition of mycelial growth at 100 mg/l treated 2-3 hr before challenge measured after 5 days; conditions: read-out: GI
Botrytis cinerea [2] = assay: Fungicidal activity against anilinopyrimidine-sensitive Botryotinia fuckeliana KU-01 isolated from grape plant assessed as inhibition of mycelial growth at 0.3 mg/l after 4 days; conditions: KU-01, 96 h, read-out: GI
Botrytis cinerea [3] = assay: Fungicidal activity against anilinopyrimidine-resistant Botryotinia fuckeliana CH164.94 infected in strawberry fruit assessed as inhibition of mycelial growth at 50 mg/l treated 2-3 hr before challenge measured after 5 days; conditions: read-out: GI
Botrytis cinerea [4] = assay: Fungicidal activity against anilinopyrimidine-resistant Botryotinia fuckeliana CH15.93 infected in strawberry fruit assessed as inhibition of mycelial growth at 50 mg/l treated 2-3 hr before challenge measured after 5 days; conditions: read-out: GI
Botrytis cinerea [5] = assay: Fungicidal activity against anilinopyrimidine-resistant Botryotinia fuckeliana CH15.93 isolated from grape plant assessed as inhibition of mycelial growth at 0.1 mg/l after 4 days; conditions: CH15.93, 96 h, read-out: GI
Botrytis cinerea [6] = assay: Fungicidal activity against anilinopyrimidine-sensitive Botryotinia fuckeliana KU-59 isolated from grape plant assessed as inhibition of mycelial growth at 30 mg/l after 4 days; conditions: KU-59, 96 h, read-out: GI
Botrytis cinerea [7] = assay: Fungicidal activity against anilinopyrimidine-resistant Botryotinia fuckeliana CH164.94 isolated from grape plant assessed as inhibition of mycelial growth at 3 mg/l after 4 days; conditions: CH164.94, 96 h, read-out: GI
Botrytis cinerea [8] = assay: Fungicidal activity against anilinopyrimidine-resistant Botryotinia fuckeliana CH15.93 isolated from grape plant assessed as inhibition of mycelial growth at 0.3 mg/l after 4 days; conditions: CH15.93, 96 h, read-out: GI
Botrytis cinerea [9] = assay: Fungicidal activity against anilinopyrimidine-resistant Botryotinia fuckeliana CH15.93 isolated from grape plant assessed as inhibition of mycelial growth at 100 mg/l after 4 days; conditions: CH15.93, 96 h, read-out: GI
Botrytis cinerea [10] = assay: Fungicidal activity against anilinopyrimidine-sensitive Botryotinia fuckeliana KU-59 isolated from grape plant assessed as inhibition of mycelial growth at 100 mg/l after 4 days; conditions: KU-59, 96 h, read-out: GI
Botrytis cinerea [11] = assay: Fungicidal activity against anilinopyrimidine-resistant Botryotinia fuckeliana CH164.94 isolated from grape plant assessed as inhibition of mycelial growth at 100 mg/l after 4 days; conditions: CH164.94, 96 h, read-out: GI
Botrytis cinerea [12] = assay: Fungicidal activity against anilinopyrimidine-sensitive Botryotinia fuckeliana KU-01 isolated from grape plant assessed as inhibition of mycelial growth at 1 mg/l after 4 days; conditions: KU-01, 96 h, read-out: GI
Botrytis cinerea [13] = assay: Fungicidal activity against anilinopyrimidine-sensitive Botryotinia fuckeliana KU-01 infected in strawberry fruit assessed as inhibition of mycelial growth at 50 mg/l treated 2-3 hr before challenge measured after 5 days; conditions: read-out: GI
Botrytis cinerea [14] = assay: Fungicidal activity against anilinopyrimidine-resistant Botryotinia fuckeliana CH15.93 infected in strawberry fruit assessed as inhibition of mycelial growth at 200 mg/l treated 2-3 hr before challenge measured after 5 days; conditions: read-out: GI
Botrytis cinerea [15] = assay: Fungicidal activity against anilinopyrimidine-sensitive Botryotinia fuckeliana KU-01 isolated from grape plant assessed as inhibition of mycelial growth at 30 mg/l after 4 days; conditions: KU-01, 96 h, read-out: GI
Botrytis cinerea [16] = assay: Fungicidal activity against anilinopyrimidine-sensitive Botryotinia fuckeliana KU-59 isolated from grape plant assessed as inhibition of mycelial growth at 10 mg/l after 4 days; conditions: KU-59, 96 h, read-out: GI
Botrytis cinerea [17] = assay: Fungicidal activity against anilinopyrimidine-resistant Botryotinia fuckeliana CH12.92 infected in strawberry fruit assessed as inhibition of mycelial growth at 200 mg/l treated 2-3 hr before challenge measured after 5 days; conditions: read-out: GI
Botrytis cinerea [18] = assay: Fungicidal activity against anilinopyrimidine-resistant Botryotinia fuckeliana CH164.94 isolated from grape plant assessed as inhibition of mycelial growth at 30 mg/l after 4 days; conditions: CH164.94, 96 h, read-out: GI
Botrytis cinerea [19] = assay: Fungicidal activity against anilinopyrimidine-resistant Botryotinia fuckeliana CH164.94 infected in strawberry fruit assessed as inhibition of mycelial growth at 200 mg/l treated 2-3 hr before challenge measured after 5 days; conditions: read-out: GI
Botrytis cinerea [20] = assay: Fungicidal activity against anilinopyrimidine-resistant Botryotinia fuckeliana CH15.93 isolated from grape plant assessed as inhibition of mycelial growth at 3 mg/l after 4 days; conditions: CH15.93, 96 h, read-out: GI
Botrytis cinerea [21] = assay: Fungicidal activity against anilinopyrimidine-resistant Botryotinia fuckeliana CH12.92 isolated from grape plant assessed as inhibition of mycelial growth at 1 mg/l after 4 days; conditions: CH12.92, 96 h, read-out: GI
Botrytis cinerea [22] = assay: Fungicidal activity against anilinopyrimidine-resistant Botryotinia fuckeliana CH15.93 infected in strawberry fruit assessed as inhibition of mycelial growth at 100 mg/l treated 2-3 hr before challenge measured after 5 days; conditions: read-out: GI
Botrytis cinerea [23] = assay: Fungicidal activity against anilinopyrimidine-sensitive Botryotinia fuckeliana KU-59 isolated from grape plant assessed as inhibition of mycelial growth at 0.3 mg/l after 4 days; conditions: KU-59, 96 h, read-out: GI
Botrytis cinerea [24] = assay: Fungicidal activity against anilinopyrimidine-resistant Botryotinia fuckeliana CH15.93 isolated from grape plant assessed as inhibition of mycelial growth at 30 mg/l after 4 days; conditions: CH15.93, 96 h, read-out: GI
Botrytis cinerea [25] = assay: Fungicidal activity against anilinopyrimidine-sensitive Botryotinia fuckeliana KU-01 isolated from grape plant assessed as inhibition of mycelial growth at 0.1 mg/l after 4 days; conditions: KU-01, 96 h, read-out: GI

## CC#Cc1cc(C)nc(Nc2ccccc2)n1 [MEPANIPYRIM]
Botrytis cinerea [1]
  inhibition of growth at 100 µg/mL: 0%
Botrytis cinerea [2]
  inhibition of growth at 0.3 µg/mL: 100%
Botrytis cinerea [3]
  inhibition of growth at 50 µg/mL: 0%
Botrytis cinerea [4]
  inhibition of growth at 50 µg/mL: 0%
Botrytis cinerea [5]
  inhibition of growth at 0.1 µg/mL: 0%
Botrytis cinerea [6]
  inhibition of growth at 30 µg/mL: 100%
Botrytis cinerea [7]
  inhibition of growth at 3 µg/mL: 57.9%
Botrytis cinerea [8]
  inhibition of growth at 0.3 µg/mL: 0%
Botrytis cinerea [9]
  inhibition of growth at 100 µg/mL: 75.4%
Botrytis cinerea [10]
  inhibition of growth at 100 µg/mL: 100%
Botrytis cinerea [11]
  inhibition of growth at 100 µg/mL: 70.8%
Botrytis cinerea [12]
  inhibition of growth at 1 µg/mL: 100%
Botrytis cinerea [13]
  inhibition of growth at 50 µg/mL: 100%
Botrytis cinerea [14]
  inhibition of growth at 200 µg/mL: 0%
Botrytis cinerea [15]
  inhibition of growth at 30 µg/mL: 100%
Botrytis cinerea [16]
  inhibition of growth at 10 µg/mL: 100%
Botrytis cinerea [17]
  inhibition of growth at 200 µg/mL: 0%
Botrytis cinerea [18]
  inhibition of growth at 30 µg/mL: 66.2%
Botrytis cinerea [19]
  inhibition of growth at 200 µg/mL: 0%
Botrytis cinerea [20]
  inhibition of growth at 3 µg/mL: 65.7%
Botrytis cinerea [21]
  inhibition of growth at 1 µg/mL: 42.6%
Botrytis cinerea [22]
  inhibition of growth at 100 µg/mL: 0%
Botrytis cinerea [23]
  inhibition of growth at 0.3 µg/mL: 100%
Botrytis cinerea [24]
  inhibition of growth at 30 µg/mL: 74.1%
Botrytis cinerea [25]
  inhibition of growth at 0.1 µg/mL: 75.5%
